Patent US20240216438A1, “COMPOSITION CONTAINING FUNCTION-REINFORCED STEM CELL FOR PREVENTION OR TREATMENT OF ATOPIC DERMATITIS” (SCM LIFESCIENCE CO., LTD., priority 2021, published 2024)

Test system: mesenchymal stem cells
Test: qRT-PCR of IDO and TSG6 expression in mesenchymal stem cells treated with priming candidates
Type: cell-based
Settings: for expression of IDO and TSG6: compared to untreated control group 0, Table 1 groups, 24 hours; for lowest effective concentrations capable of inducing significantly increased expression of both TSG6 and IDO: single substance, 24 hours treatment, qRT-PCR
Experimental: In a 37° C. and 5% CO2 incubator, mesenchymal stem cells in a storage state (LN2 tank storage) were thawed and cultured, and at this time, the cells were cultured in a medium (DMEM, alpha-MEM) containing 10% FBS or 4% hPL until proliferated to a cell confluence of about 80%. The cultured mesenchymal stem cells were seeded in a 100 mm dish, and treated with candidate substances for reinforcing the functions of the mesenchymal stem cells for 24 hours, and then the concentrations of primary candidate substances for reinforcing the functions were set.
TNF-α and IFN-γIFN-α were selected as the primary candidate substances, and in order to confirm the lowest effective concentration capable of increasing the expression of TNFα-stimulated gene-6 (TSG6) and indoleamine 2,3-dioxygenase (IDO) to confirm the reinforced functions, the stem cells were treated with 5, 10, and 20 ng/ml of TNF-α, 5, 10, and 20 ng/ml of IFN-γ, and 10, 20, and 40 ng/ml of IFN-α, respectively, and changes in expression of TSG6 and IDO were confirmed.
The IDO was known as an immunomodulatory factor that inhibited the proliferation of immune cells such as T cells by converting tryptophan, which was essential for T cell proliferation, into kynurenine, and the TSG6 was known as an anti-inflammatory regulator secreted by mesenchymal stem cells. After culturing the stem cells, total RNA was isolated using TRIzol (Invitrogen), and cDNA was synthesized from total RNA using PrimeScript™ RT reagent Kit with gDNA Eraser (TaKaRa), and qRT-PCR was performed. The results of TSG6 and IDO according to the concentration of each candidate substance were illustrated in FIGS. 1, 2 and 3.
Through Example 1, candidate substances and concentration combinations thereof selected to search for more functionally reinforced compositions based on the candidate substances and the lowest effective concentrations confirmed to induce the reinforced functions of stem cells were set as shown in Table 1. Mesenchymal stem cells were treated with the candidate combinations described in Table 1 below for 24 hours, and the stem cells were cultured as in Example 1, and then total RNA was isolated using TRIzol (Invitrogen). Thereafter, qRT-PCR was performed by synthesizing cDNA from total RNA using the PrimeScript™ RT reagent Kit with gDNA Eraser (TaKaRa).
Vitamins were known to improve the proliferative ability of stem cells and maintain the stemness of stem cells when added during a stem cell culture process. Accordingly, various vitamins were treated in the stem cell culture process, and experiments were performed to confirm whether or not vitamins could achieve anti-inflammatory and immune function reinforcing effects of stem cells. Specifically, the stem cells were treated with various types of vitamins shown in Table 2 according to the method described in Example 1, and the results of confirming changes in expression of IDO and TSG6 according to treatment with each candidate substance were illustrated in FIG. 5.

Substance | expression of IDO and TSG6 | lowest effective concentrations capable of inducing significantly increased expression of both TSG6 and IDO
IFN-α | increased expression | 20 ng/mL
IFN-γ: priming candidate substance; Table 1 group 2, 10 ng/ml | increased expression | 10 ng/mL
TNF-α | increased expression | 10 ng/mL
